≈ marks a conversion by molar mass, not a printed value.
How the values were obtained:
Assay type in all cases: functional
[1] = test system: MOLT-4F; test: Cytotoxicity against human MOLT4F cells after 48 hrs by SRB assay; details: read-out: ED50 (the source's name)
[2] = test system: LOX IMVI; test: Cytotoxicity against human LOXIMVI cells after 48 hrs by SRB assay; details: read-out: ED50 (the source's name)
[3] = test system: UO-31; test: Cytotoxicity against human UO31 cells after 48 hrs by SRB assay; details: UO-31, 48 h, read-out: ED50 (the source's name)
[4] = Cytotoxicity against human CRL1579 cells after 48 hrs by SRB assay; details: read-out: ED50 (the source's name)
[5] = test system: KM12; test: Cytotoxicity against human KM12 cells after 48 hrs by SRB assay; details: KM12, 48 h, read-out: ED50 (the source's name)

SMILES	EC50 [1] [µg/mL]	EC50 [2] [µg/mL]	EC50 [3] [µg/mL]	EC50 [4] [µg/mL]	EC50 [5] [µg/mL]
COc1cccc2c1C(=O)c1c(O)c3c(c(O)c1C2=O)C[C@@](O)(C(=O)CO)C[C@@H]3O[C@H]1C[C@H](N)[C@H](O)[C@H](C)O1 [DOXORUBICIN]	0.02 (≈ 0.0368 µM)	0.13 (≈ 0.239 µM)	0.3 (≈ 0.552 µM)	0.16 (≈ 0.294 µM)	0.11 (≈ 0.202 µM)
O=C1c2c(O)c(Cc3ccc(O)cc3)c(O)c(Cc3ccc(O)cc3)c2O[C@H](c2ccc(O)cc2)[C@H]1O [GERICUDRANIN D]	8.9 (≈ 17.8 µM)	16.6 (≈ 33.2 µM)	5.2 (≈ 10.4 µM)	9.5 (≈ 19 µM)	5 (≈ 9.99 µM)
O=C1c2c(cc(O)c(Cc3ccc(O)cc3)c2O)O[C@H](c2ccc(O)cc2)[C@H]1O [GERICUDRANIN E]	10.7 (≈ 27.1 µM)	12.5 (≈ 31.7 µM)	7.6 (≈ 19.3 µM)	2.9 (≈ 7.35 µM)	11.9 (≈ 30.2 µM)

Source: ChEMBL document CHEMBL1150084, “Two Benzylated Dihydroflavonols from Cudrania tricuspidata” (1995)
